Reference: US11337984B2, “Methods for treating, diagnosing and prognosing a haematological malignancy” (Institut de Recerca Contra La Leucèmia Josep Carreras, priority 2014, dated 2022)

Test system: HL-60, KG-1, MonoMac-1 and Kasumi-1 AML cell lines
Experiment: Cell viability of AML cell lines by flow cytometry (7-AAD/Hoechst, volumetric count)
Type: cell-based, human
Conditions: subtype-specific 5HTR antagonists, 0.1, 1 and 10 μM, 72 h
Procedure: FIG. 1. […] 10^6 HL-60, KG-1, MonoMac-1 and Kasumi-1 cells per mL in complete RPMI media were treated with 0.1, 1 and 10 μM Apomorphine for 72 h. […] Cells were stained with 7-aminoactinomycin D (7-AAD, CAS no. 7240-37-1) and Hoechst 33342 (CAS no. 23491-52-3) and analyzed by flow cytometry. […] Cell number was calculated by volumetric count. A. The mean (symbol) for each AML cell line and standard deviation (error bars) from 6 different biological replicates are represented. B. The average corresponding to the four different AML cell lines is represented. *p<0.05.
FIG. 2. […] Cell number was calculated by volumetric count. A. The mean (symbol) for each AML cell line and standard deviation (error bars) from 6 different biological replicates are represented. B. AML cell lines were treated with 10 μM Apomorphine or Methiothepin in the presence or absence of 5-CT or 5-HT. *p<0.05. Apo: apomorphine; Methio: methiothepine.
In order to test the anti-leukaemic effect of 5HTR antagonists, HL-60 (Collins, Gallo et al. Nature. 1977; 270(5635):347-9), MonoMac-1 (Steube, Teepe et al. Leuk Res. 1997; 21(4):327-35), KG-1 (Koeffler and Golde. Science. 1978; 200(4346):1153-4) and Kasumi-1 (Asou, Tashiro et al. Blood. 1991; 77(9):2031-6) AML (Acute Myeloid Leukaemia) cell lines were treated with the broad 5HTR antagonist Apomorphine (CAS no. 314-19-2) at different doses for 72 h. One million cells per mL were seeded in complete RPMI media supplemented with 10% fetal bovine serum in a 96-well plate. The concentration used for the Apomorphine treatment was 0.1, 1 and 10 μM.
The human 5HTR family is composed by 7 subtypes (from 1 to 7) of receptors […]. HL-60, KG-1, MonoMac-1 and Kasumi-1 AML cell lines were incubated with subtype-specific 5HTR antagonists: Apomorphine (type 1, 2 and 5), Methiothepin (type 1 and 2) (CAS no. 74611-28-2), Amperozide (type 2) (CAS no. 75558-90-6), GR113808 (type 4) (CAS no. 144625-51-4). 72 h after treatment, cell viability was determined by flow cytometry. Cells were stained with 7-AAD (CAS no. 7240-37-1) and Hoechst 33342 (CAS no. 23491-52-3). Viability cells were identified by 7-AAD staining exclusion and the presence of Hoechst positive stain. Cell counts were measured by volume. […] In fact, the anti-leukaemic effect was reversed in the presence of a competitive agonist such as the natural ligand 5-HT (CAS no. 153-98-0) or 5-CT (CAS no. 74885-72-6).

Structure (SMILES)	cell death on AML cell lines
CCNC(=O)N1CCN(CCCC(c2ccc(F)cc2)c2ccc(F)cc2)CC1 [Amperozide, 4-[4,4-bis(4-fluorophenyl)butyl]-N-ethylpiperazine-1-carboxamide]	induced cell death
Cn1cc(C(=O)OCC2CCN(CCNS(C)(=O)=O)CC2)c2ccccc21 [GR113808]	Only Apomorphine, Methiothepin and Amperozide induced cell death
